Experiments:
[1] = tested on: C. autoethanogenum; experiment: Balch tube batch growth of homoacetogen C. autoethanogenum on fructose, optical density; assay type: cell-based; conditions: added 21 h after inoculation
Protocol: These compounds were first tested to determine their effect on a known homoacetogen. Each compound was tested in a series of batch experiments to determine the growth response of a homoacetogen to the presence of the compound at varying concentrations. The batch experiments were all conducted by anoxically filling a Balch tube with 5 ml of a fermentation medium having the composition given in Tables 2 and 3. To expedite results, these batch experiments used fructose as the growth nutrient source for bacteria. Thus, the media included a 5 g/L of fructose.
Each tube was inoculated with 0.5 ml of the same strain of C. autoethanogenum bacteria seed culture inoculum. The tubes were maintained at a temperature of 37° C. Twenty one hours after the inoculation of the tube with the bacteria, the different crotonate derivatives from Table 1 were added to different tubes in the amounts indicated in Table 4 This was at a time of early to mid-log phase growth for the bacteria. Each fermentation of the bacteria in the media at the different concentration of crotonate derivatives were allowed to progress and were monitored to determine the bacteria growth at selected intervals of time varying from approximately 20 hours to 190 hours. Growth at the intervals was measured by reading the optical density (OD) of the fermentation liquid. Optical density was measured using a Spectronic Spec 20 (Thermo Spectronic) at a wavelength of 600 nm. The OD of the Balch tube culture was measured directly in the tube using absorbance mode on the Spec 20 machine. The machine was set to zero absorbance by first measuring and adjusting the setting to zero absorbance using media only as a blank. This process was repeated at each indicated time point throughout the experiment. The ability of a tube fermentation at a particular concentration of crotonate derivative to reach a predetermined optical density was recorded in Table 4. Table 4 indicates the presence of bacterial growth to an OD of approximately 2 or above with a “+”, and to an optical density in a range of 0.5 to 1.5 as a “+/−”, and indicates the failure of bacterial growth to reach an optical density of approximately 0.5 as a “−”.

[2] = tested on: Clostridium tyrobutyricum; experiment: Balch tube batch growth of strict butyrogen Clostridium tyrobutyricum on fructose, optical density; assay type: cell-based; conditions: added 21 h after inoculation
Protocol: Similar experiments were conducted to make a preliminary determination as to which of the crotonate and crotonate-like compounds would act as butyrogen retardants. For this purpose the selected compounds were tested again in a series of batch experiments to determine the growth response of butyrogens to the presence of the compound at varying concentrations. The batch experiments were all conducted by anoxically filling a 20 ml Balch tube with 5 ml of a fermentation medium having the composition given in Tables 2 and 3. The media included 0.5 v/v final concentration of a fructose substrate. For each of the crotonate concentrations tested, duplicate test tubes were prepared.
Each tube was inoculated with 0.5 ml seed culture inoculum of the strict butyrogen Clostridium tyrobutyricum. The tubes were maintained at a temperature of 37° C. Twenty one hours after the inoculation of the tube with the bacteria, the different compounds from Table 1 were added to different tubes in the amounts indicated in Table 6. This was at a time of early to mid-log phase growth for the bacteria. Each fermentation of the bacteria in the media at the different concentration of crotonate derivatives were allowed to progress and were monitored to determine the bacteria growth at selected intervals of time varying from approximately 20 hours to 54 hours. Growth at the intervals was measured by reading the optical density (OD) of the fermentation liquid. Optical density was measured as described in Example 1. The ability of a tube fermentation at a particular concentration of crotonate derivative to reach a predetermined optical density was recorded in Table 6. Table 6 indicates the presence of bacterial growth to an OD of approximately 1.8 or above with a “+”, and to an optical density in a range of 0.7 to 1.5 as a “+/−”, and indicates the failure of bacterial growth to reach an optical density of approximately 0.7 as a “−”.

[3] = tested on: acyl-CoA dehydrogenases; experiment: In vitro acyl-CoA dehydrogenase ferrocenium assay with C. tyrobutyricum cell-free extract; assay type: biochemical; conditions: 0.5 to 10 mM compound, rate of ferrocenium reduction at 300 nm
Outline: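 Lysozyme-lysed cell-free extract of early-log C. tyrobutyricum was assayed anaerobically at laboratory temperature in 50 mM Tris-HCl pH 7.6 with 0.05 mM butyryl-CoA, FAD and 0.4 mM ferrocenium. Ferrocenium reduction was followed at 300 nm over 10–20 min, and the rate slope was plotted against compound concentration to give a dose-response slope.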

Compound	Optical density valuation of C. autoethanogenum ([1]; 1 ppm(m))	Optical density valuation of C. autoethanogenum ([1]; 5 ppm(m))	Optical density valuation of C. autoethanogenum ([1]; 10 ppm(m))	Optical density valuation of C. autoethanogenum ([1]; 50 ppm(m))	Optical density valuation of C. autoethanogenum ([1]; 100 ppm(m))	Optical density valuation of C. autoethanogenum ([1]; 500 ppm(m))	Optical density valuation of C. autoethanogenum ([1]; 1000 ppm(m))	Optical density valuation of C. autoethanogenum ([1]; 5000 ppm(m))	Optical density valuation of C. autoethanogenum ([1]; 10000 ppm(m))	Optical density valuation of C. tyrobutyricum ([2]; 100 ppm(m))	Optical density valuation of C. tyrobutyricum ([2]; 500 ppm(m))	Optical density valuation of C. tyrobutyricum ([2]; 1000 ppm(m))	Dose-Response Slope [3]	Dose-Response Slope ([3]; listed as Ethyl 4,4,4-trifluoro-3-(trifluoromethyl)crotonate)
CCOC(=O)/C=C(\N)C(F)(F)F [B, ethyl-3-amino-4,4,4-trifluorocrotonate]	+ (bacterial growth to an OD of approximately 2 or above)	+ (bacterial growth to an OD of approximately 2 or above)	+ (bacterial growth to an OD of approximately 2 or above)	+ (bacterial growth to an OD of approximately 2 or above)	+ (bacterial growth to an OD of approximately 2 or above)	+ (bacterial growth to an OD of approximately 2 or above)	+ (bacterial growth to an OD of approximately 2 or above)	+/− (to an optical density in a range of 0.5 to 1.5)	− (failure of bacterial growth to reach an optical density of approximately 0.5)	+ (bacterial growth to an OD of approximately 1.8 or above)	+ (bacterial growth to an OD of approximately 1.8 or above)	+ (bacterial growth to an OD of approximately 1.8 or above)	25	
O=C(O)C=C(C(F)(F)F)C(F)(F)F [D, 4,4,4-trifluoro-3-(trifluoromethyl)crotonic acid]			+ (bacterial growth to an OD of approximately 2 or above)		+ (bacterial growth to an OD of approximately 2 or above)	+ (bacterial growth to an OD of approximately 2 or above)	+/− (to an optical density in a range of 0.5 to 1.5)	− (failure of bacterial growth to reach an optical density of approximately 0.5)	− (failure of bacterial growth to reach an optical density of approximately 0.5)	+ (bacterial growth to an OD of approximately 1.8 or above)	+ (bacterial growth to an OD of approximately 1.8 or above)	+ (bacterial growth to an OD of approximately 1.8 or above)		
CCOC(=O)C=C(C(F)(F)F)C(F)(F)F [Compound A, ethyl 4,4,4-trifluoro-3-(trifluoromethyl)crotonate]	+ (bacterial growth to an OD of approximately 2 or above)	+ (bacterial growth to an OD of approximately 2 or above)	+ (bacterial growth to an OD of approximately 2 or above)	+ (bacterial growth to an OD of approximately 2 or above)	+ (bacterial growth to an OD of approximately 2 or above)	+ (bacterial growth to an OD of approximately 2 or above)	+ (bacterial growth to an OD of approximately 2 or above)	− (failure of bacterial growth to reach an optical density of approximately 0.5)	− (failure of bacterial growth to reach an optical density of approximately 0.5)	+ (bacterial growth to an OD of approximately 1.8 or above)	+/− (to an optical density in a range of 0.7 to 1.5)	− (failure of bacterial growth to reach an optical density of approximately 0.7)	about 8	8

Reference: US20130071897A1, “METHOD FOR CONTROLLING UNDESIRABLE BYPRODUCTS FORMATION CAUSED BY CONTAMINATING ORGANISMS IN THE PRODUCTION OF ETHANOL FROM SYNGAS” (COSKATA, INC., priority 2011, published 2013)
